Measured values: patent US20250199015A1, “CYCLIN-DEPENDENT KINASE 2 INHIBITORS FOR MEDICAL TREATMENT” (INCYCLIX BIO, LLC, priority 2022, published 2025)
Entries after “also recorded” stand apart in the source; their conditions may differ.

Assays:
[1] = tested on: OVCAR3 human ovary carcinoma CDX; test: OVCAR3 cell line-derived xenograft (tumor volume, body weight, tumor Western blot); assay type: in vivo, mice
Method: 10 million OVCAR3 human ovary carcinoma cells were injected into athymic nude female mice. The study was initiated at a mean tumor volume of approximately 100-200 mm^3. […] The test agents were delivered at 5 mL/kg by oral gavage.
Tumors from FIG. 146A were harvested at the end of study and snap frozen. A small piece of each tumor was removed while frozen and lysed with 150 μL cold RIPA with protease and phosphatase inhibitors while being homogenized with mortar and pestle. Lysates were clarified by centrifugation at 14 kxg for 10 min at 4° C. and supernatants transferred to clean tubes. A BCA assay was performed to determine the protein concentration of each lysate. 30 μg of protein was mixed with sample buffer and reducing agent before being run on a 4-12% SDS-PAGE. Protein was transferred to a nitrocellulose membrane and blocked with LI-COR blocking buffer for 1 hour. Membranes were incubated overnight in primary antibody at 4° C. Following 3 washes with TBST, membranes were incubated for 45 minutes in LI-COR secondary antibodies. Following 2 washes in TBST, and one TBS wash, membranes were scanned using a LI-COR OdysseyCLx. Image studio was used for image analysis.

human OAT1 = target: T1, human OAT1 (Homo sapiens, UniProt Q4U2R8); test: SLC transporter inhibition in HEK293 cells; assay type: in vitro ADME
T1 construct: expressed in transfected cells; host or cells: HEK293
T1 sequence (Q4U2R8 whole entry): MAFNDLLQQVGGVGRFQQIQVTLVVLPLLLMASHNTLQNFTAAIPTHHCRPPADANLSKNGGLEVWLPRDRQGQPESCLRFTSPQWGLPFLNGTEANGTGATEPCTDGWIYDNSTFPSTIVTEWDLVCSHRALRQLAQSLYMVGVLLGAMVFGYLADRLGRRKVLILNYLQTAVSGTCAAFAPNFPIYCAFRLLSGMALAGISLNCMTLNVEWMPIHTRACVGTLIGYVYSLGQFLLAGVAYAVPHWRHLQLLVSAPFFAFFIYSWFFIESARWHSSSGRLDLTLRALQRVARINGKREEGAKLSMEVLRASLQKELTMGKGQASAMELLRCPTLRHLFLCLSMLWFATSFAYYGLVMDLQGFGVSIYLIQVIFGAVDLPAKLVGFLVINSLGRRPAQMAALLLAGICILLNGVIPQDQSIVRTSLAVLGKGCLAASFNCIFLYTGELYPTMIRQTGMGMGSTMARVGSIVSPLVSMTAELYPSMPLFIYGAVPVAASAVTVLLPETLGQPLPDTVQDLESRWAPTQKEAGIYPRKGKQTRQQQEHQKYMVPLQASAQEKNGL

H82 (NCIH82) cells = test: CellTiter Glo cell proliferation assay; assay type: cell-based; conditions: six days
Method: Plates returned to incubator for six additional days. On day six post dosing, plates were removed and treated with CellTiter Glo reagent following manufacturer's specifications. Plates incubated 45 minutes at room temperature and run on a Biotek luminometer with 1 sec/well detection. Results were converted to Microsoft Excel and transferred to GraphPad Prism for analysis.

[2] = tested on: Hs68 normal foreskin fibroblast cells; test: Cell cycle by EdU flow cytometry, normal fibroblasts; assay type: cell-based, human; conditions: 300 nM, 24 hours, alone or in combination with cisplatin
Method: The Hs68 normal foreskin fibroblast cell line was grown in DMEM-high glucose/1× Glutamax/10% fetal bovine serum and was plated at 30,000 cells/well in Corning 6 well tissue culture treated plates. Cells were incubated at 37° C. for 24 hours prior to addition of the first treatment. […] Cells were treated to 24 hours post-initial treatment, with 10 μM EdU added at hour 23. Cells were collected and fixed in 1% paraformaldehyde. Cells were incubated with pacific blue azide dye as described by Thermo Scientific. Cells were then incubated with antibody against γ-H2AX at a ratio of 1:50 before incubation with FarRed dye and RNase. Cells were analyzed on a BD Celesta and data compiled using FloJo and GraphPad. Cell cycle profiles were evaluated following treatment via Flow Cytometry using FlowJo (v10.0) software.

OVCAR-3 xenograft tumor = OVCAR-3 xenograft tumor fragment model (tumor growth, survival); assay type: in vivo, mice; conditions: 100 mpk twice daily
Method: OVCAR-3 xenograft tumor fragments were harvested from host animals and implanted into immune-deficient mice (CR1:NU(NCr)-Fox1^nu). The study was initiated at a mean tumor volume of approximately 175-300 mm^3. […] The test agents were delivered at 10 mL/kg by oral gavage. […] Individual replicate values over the course of the experiment are shown in FIG. 19A, extended out to 42 days post-study initiation.

CYP3A4 transcription = test: CYP induction (transcription); assay type: in vitro ADME; conditions: up to 3 μM, 24 hours
[3] = tested on: caspase 3/7 in H526 cells; test: CaspaseGlo-3/7 activation; assay type: cell-based, human
Method: (§1) Plates were removed from incubator and treated with CaspaseGlo-3/7 (Promega, Inc) following manufacturer specifications. Plates were then read on a Biotech luminometer with 1 sec/well integration. Results were converted to Microsoft Excel and transferred to GraphPad Prism for Analysis (FIG. 22D).
as §1, with “from the” for “from”, “incubator at each specified timepoint” for “incubator”, “on” for “on a”, “27A-C).” for “22D).”

[4] = Bidirectional permeability (A-B, B-A Papp); assay type: in vitro ADME
[5] = tested on: Palbo-R MCF7 PDRC15-1 cells; test: Cell cycle by EdU flow cytometry; assay type: cell-based, human; conditions: with 1 μM palbociclib, 24 hours
Method: (§2) The Palbo-sensitive (Palbo-S) MCF7 parental and Palbo-R daughter cells (MCF7 PDRC15-1) human […] carcinoma cell line was grown in MEM/1× Glutamax/1× Insulin/10% fetal bovine serum with the PDR cells grown in the presence of 1 μM palbociclib. Cells were plated at 100,000 cells/well in Corning 6 cm tissue culture treated plates. […] Cells were treated for 24 hours and 10 μM EdU was added 1 hour prior to collection. Cells were collected and fixed in 1% paraformaldehyde. Cells were incubated with Alexa488 azide dye as described by Thermo Scientific. Cells were then incubated with FarRed dye and RNase. Cells were analyzed on a BD Celesta and data compiled using FloJo and GraphPad. […] The resistant Palbo-R MCF7 cells have a much lower percent of cells in S phase in general.

[6] = tested on: Palbo-S MCF7 parental cells; test: Cell cycle by EdU flow cytometry; assay type: cell-based, human; conditions: 10 nM to 10 μM, 24 hours
Method: as §2

[7] = tested on: T47D parental and therapy-resistant (LYR, FR, LYFR, PDR) cells; test: Proliferation (DAPI cell count, 2 doubling times) in parental and therapy-resistant cells; assay type: cell-based, human; conditions: with the corresponding resistant drug fixed
Method: (§3) The doubling time of each cell line was calculated and plates were removed from incubator after 2 doubling times. Cells were fixed and stained with DAPI and imaged with automated counting of cell number.

[8] = tested on: MCF7 parental and therapy-resistant (LYR, FR, LYFR, PDR) cells; test: as above; assay type: cell-based, human; conditions: with the corresponding resistant drug fixed
Method: as §3

[9] = target: bile salt export pump (BSEP) (Homo sapiens, UniProt O95342); test: Transporter inhibition; assay type: in vitro ADME
Chain of bile salt export pump (BSEP) (O95342 whole entry): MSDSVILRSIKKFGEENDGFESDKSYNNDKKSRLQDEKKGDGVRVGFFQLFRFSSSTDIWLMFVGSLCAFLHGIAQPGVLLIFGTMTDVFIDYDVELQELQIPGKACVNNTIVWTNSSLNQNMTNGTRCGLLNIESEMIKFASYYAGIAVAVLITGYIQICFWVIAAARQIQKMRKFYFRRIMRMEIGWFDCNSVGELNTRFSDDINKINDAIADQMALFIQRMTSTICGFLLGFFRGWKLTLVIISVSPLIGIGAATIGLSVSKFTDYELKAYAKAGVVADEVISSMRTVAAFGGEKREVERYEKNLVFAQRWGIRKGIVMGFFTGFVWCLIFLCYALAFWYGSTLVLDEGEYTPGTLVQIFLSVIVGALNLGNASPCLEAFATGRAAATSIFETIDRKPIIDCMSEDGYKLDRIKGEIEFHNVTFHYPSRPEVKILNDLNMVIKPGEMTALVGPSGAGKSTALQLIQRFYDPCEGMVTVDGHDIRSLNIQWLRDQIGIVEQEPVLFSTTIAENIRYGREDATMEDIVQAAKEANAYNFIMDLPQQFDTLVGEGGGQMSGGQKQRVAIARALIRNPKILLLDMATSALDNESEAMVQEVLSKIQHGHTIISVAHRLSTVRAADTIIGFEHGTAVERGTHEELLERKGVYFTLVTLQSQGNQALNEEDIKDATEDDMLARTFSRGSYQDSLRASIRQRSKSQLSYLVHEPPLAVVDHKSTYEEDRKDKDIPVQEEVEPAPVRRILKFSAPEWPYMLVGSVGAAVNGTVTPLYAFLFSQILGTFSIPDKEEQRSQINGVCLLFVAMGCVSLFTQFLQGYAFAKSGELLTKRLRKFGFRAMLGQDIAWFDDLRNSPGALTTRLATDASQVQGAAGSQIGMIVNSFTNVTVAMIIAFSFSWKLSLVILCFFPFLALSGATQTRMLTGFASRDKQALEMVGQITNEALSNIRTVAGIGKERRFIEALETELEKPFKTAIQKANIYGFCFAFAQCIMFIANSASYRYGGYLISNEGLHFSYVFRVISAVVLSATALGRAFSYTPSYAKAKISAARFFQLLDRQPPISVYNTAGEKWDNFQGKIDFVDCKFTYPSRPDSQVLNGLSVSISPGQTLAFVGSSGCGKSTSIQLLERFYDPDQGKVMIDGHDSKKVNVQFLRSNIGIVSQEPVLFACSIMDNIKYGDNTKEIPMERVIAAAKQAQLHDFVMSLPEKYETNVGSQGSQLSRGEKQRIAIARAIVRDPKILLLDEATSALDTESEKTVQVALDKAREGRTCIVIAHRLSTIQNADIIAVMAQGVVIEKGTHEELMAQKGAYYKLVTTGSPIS

NS(=O)(=O)c1ccc(Nc2ncc3cc4n(c3n2)C2(CCCCC2)C(=O)NN4)cc1 [Compound I]
tumor outcome ([1]; 100 mg/kg BID, 42 days): tumor stasis | TGI ([1]; 200 mg/kg QD, 42 days): 89% | tumor outcome ([1]; 100 mpk BID and 200 mpk QD, out to 42 days): durable tumor stasis or regression | Rb1 phosphorylation and cyclin A2 levels in ex vivo tumor samples ([1]; 100 mpk BID, at least 24 hours post-final dose): substantially reduces Rb1 phosphorylation and cyclin A2 levels | body weight loss ([1]; at any point): ≤ 5% | OAT1 inhibition (human OAT1): did not inhibit | Maximum Percent inhibition (human OAT1; OAT1, HEK293 cells): 30% | inhibition compared with palbociclib (H82 (NCIH82) cells): low nanomolar concentrations | cell cycle changes [2]: Few cell cycle changes were observed | overall survival (OVCAR-3 xenograft tumor): greatest overall survival | tumor volume (OVCAR-3 xenograft tumor; oral gavage, 28 days): reduced tumor volume the most among all treatment conditions | induction of CYP3A4 transcription (CYP3A4 transcription): no observed induction | caspase 3/7 activation ([3]; 24 hours): no appreciable caspase 3/7 activation | IC50 ([3]; 72 hours): 129 nM | IC50 ([3]; Homo sapiens, NCI-H526, 48 h, 48 hours): 181 nM | IC50 ([3]; Homo sapiens, NCI-H526, 72 h, 72 hours): 116 nM | permeability [4]: moderate permeability | Papp A→B ([4]; not told): 3.28 to 6.67 ×10⁻⁶ cm/s | Papp B→A ([4]; not told): 42 to 68.3 ×10⁻⁶ cm/s | cell cycle arrest [5]: arrested during the G1 phase at 30, 100, 300 nM | cell cycle sensitivity [6]: not sensitive to Compound I | cellular proliferation in therapy-resistant cells [7]: low, nanomolar IC50 values; also recorded: dose-dependent decrease in cellular proliferation | cellular proliferation in therapy-resistant cells [8]: low, nanomolar IC50 values; also recorded: dose-dependent decrease in cellular proliferation | BSEP inhibition [9]: did not inhibit
